Assay results published in ChEMBL document CHEMBL4229405, “Design, synthesis and biological evaluation of piperazino-enaminones as novel suppressants of pro-Inflammatory cytokines” (Bioorg Med Chem, 2018).
The source made the active and inactive calls. The calls are words filed in the database; no cut-off is given here.

Experiments:
[1] = Lipophilicity, log P of the compound; format: physicochemical; settings: octanol/water
J774.2 [2] = assay: Antiinflammatory activity against mouse J774.2 cells assessed as inhibition of LPS-induced TNFalpha release at 0.25 mM after 24 hrs by ELISA relative to control; format: functional; settings: J774.2, 24 h
J774.2 [3] = assay: Antiinflammatory activity against mouse J774.2 cells assessed as inhibition of LPS-induced TNFalpha release at 1 mM after 24 hrs by ELISA relative to control; format: functional; settings: J774.2, 24 h
J774.2 [4] = assay: Antiinflammatory activity against mouse J774.2 cells assessed as inhibition of LPS-induced IL-6 release at 0.25 mM after 24 hrs by ELISA relative to control; format: functional; settings: J774.2, 24 h
J774.2 [5] = assay: Antiinflammatory activity against mouse J774.2 cells assessed as inhibition of LPS-induced IL-6 release at 0.5 mM after 24 hrs by ELISA relative to control; format: functional; settings: for inhibition at 500 µM: J774.2, 24 h
J774.2 [6] = assay: Antiinflammatory activity against mouse J774.2 cells assessed as inhibition of LPS-induced IL-6 release at 1 mM after 24 hrs by ELISA relative to control; format: functional; settings: for inhibition at 1000 µM: J774.2, 24 h
J774.2 [7] = assay: Antiinflammatory activity against mouse J774.2 cells assessed as inhibition of LPS-induced TNFalpha release at 0.25 to 1 mM after 24 hrs by ELISA; format: functional, cell-based
J774.2 [8] = assay: Antiinflammatory activity against mouse J774.2 cells assessed as inhibition of LPS-induced TNFalpha release after 24 hrs by ELISA; format: functional, cell-based
J774.2 [9] = assay: Antiinflammatory activity against mouse J774.2 cells assessed as inhibition of LPS-induced TNFalpha release at > 0.5 mM after 24 hrs by ELISA; format: functional, cell-based

| Structure (SMILES) | logP [1] | inhibition at 250 µM (J774.2 [2]) [%] | inhibition at 1000 µM (J774.2 [3]) [%] | inhibition at 250 µM (J774.2 [4]) [%] | also measured |
| --- | --- | --- | --- | --- | --- |
| CCOC(=O)C1C(=O)C=C(Nc2cccc(N3CCN(C)CC3)c2)CC1C (stereo unspecified) | 3.05 | – | – | – | – |
| CCOC(=O)C1C(=O)C=C(Nc2ccccc2N2CCN(C)CC2)CC1c1ccccc1 (stereo unspecified) | 4.35 | – | – | – | – |
| CCOC(=O)C1C(=O)C=C(Nc2ccc(N3CCN(C)CC3)cc2)CC1c1ccccc1 (stereo unspecified) | 4.39 | 52 | 100 | 64 to 98 | inhibition (J774.2 [6]): inactive; inhibition at 500 µM (J774.2 [5]): 100% |
| COC(=O)C1C(=O)C=C(Nc2ccccc2N2CCN(C)CC2)CC1c1ccccc1 (stereo unspecified) | 3.97 | – | – | – | – |
| CCOC(=O)C1C(=O)C=C(Nc2ccc(N3CCN(CC)CC3)cc2)CC1c1ccccc1 (stereo unspecified) | 4.77 | 62 | – | 62 | inhibition (J774.2 [6]): inactive; inhibition (J774.2 [5]): inactive |
| CCOC(=O)C1C(=O)C=C(Nc2ccccc2N2CCN(C)CC2)CC1C (stereo unspecified) | 3.02 | – | 53 | – | inhibition at 1000 µM (J774.2 [6]): 72% |
| CCOC(=O)C1C(=O)C=C(Nc2ccc(Cl)cc2)CC1C (stereo unspecified) | – | – | 70 | 20 | inhibition at 1000 µM (J774.2 [6]): 96% |
| CCN1CCN(c2ccc(NC3=CC(=O)C(C(=O)OC)C(c4ccccc4)C3)cc2)CC1 (stereo unspecified) | 4.39 | 65 | – | 86 | inhibition (J774.2 [8]): Dose-dependent effect |
| COC(=O)C1C(=O)C=C(Nc2cccc(N3CCN(C)CC3)c2)CC1c1ccccc1 (stereo unspecified) | 3.99 | 53 | – | 72 | inhibition (J774.2 [8]): Dose-dependent effect |
| C[C@@H]1C[C@H]2[C@@H]3CCC4=CC(=O)C=C[C@]4(C)[C@@]3(F)[C@@H](O)C[C@]2(C)[C@@]1(O)C(=O)CO [DEXAMETHASONE] | – | – | 62 | – | inhibition at 500 µM (J774.2 [5]): 40% |
| CCOC(=O)C1C(=O)C=C(Nc2cccc(N3CCN(C)CC3)c2)CC1c1ccccc1 (stereo unspecified) | 4.37 | – | – | 35 | inhibition (J774.2 [9]): Active |

Continued, in another order:

| logP [1] | Structure (SMILES) | inhibition at 250 µM (J774.2 [2]) [%] | inhibition at 1000 µM (J774.2 [3]) [%] | inhibition at 250 µM (J774.2 [4]) [%] | also measured |
| --- | --- | --- | --- | --- | --- |
| 4.02 | COC(=O)C1C(=O)C=C(Nc2ccc(N3CCN(C)CC3)cc2)CC1c1ccccc1 (stereo unspecified) | 30 | 80 to 82 | 9 to 70 | inhibition at 500 µM (J774.2 [5]): 98% |
| 2.67 | COC(=O)C1C(=O)C=C(Nc2cccc(N3CCN(C)CC3)c2)CC1C (stereo unspecified) | 40 | – | – | – |
| 3.07 | CCOC(=O)C1C(=O)C=C(Nc2ccc(N3CCN(C)CC3)cc2)CC1C (stereo unspecified) | – | – | – | – |
| 3.07 | CCN1CCN(c2ccc(NC3=CC(=O)C(C(=O)OC)C(C)C3)cc2)CC1 (stereo unspecified) | – | – | – | – |
| 2.65 | COC(=O)C1C(=O)C=C(Nc2ccccc2N2CCN(C)CC2)CC1C (stereo unspecified) | – | 47 | – | inhibition at 1000 µM (J774.2 [6]): 68% |
| 2.7 | COC(=O)C1C(=O)C=C(Nc2ccc(N3CCN(C)CC3)cc2)CC1C (stereo unspecified) | – | – | 53 | inhibition (J774.2 [7]): inactive |
| 3.45 | CCOC(=O)C1C(=O)C=C(Nc2ccc(N3CCN(CC)CC3)cc2)CC1C (stereo unspecified) | – | – | 25 | inhibition (J774.2 [9]): Active |
